Test results taken from patent US20240252508A1, “Novel glucose uptake inhibitors for use in the treatment of cancer” (NOVELYEAST BV, priority 2021, published 2024).

Legend:
[1] = tested on: tps1Δ cells; test: Growth rescue of tps1Δ strain on glucose (growth curves, 2% galactose medium); type: cell-based, S. cerevisiae; conditions: 100 μM compound, 2.5 mM glucose
Experimental: Growth curves were made by measuring OD595 in a 96-well plate using the Multiskan™ FC Microplate Photometer (Thermo Fisher Scientific). Typically, for tps1Δ rescue experiments (FIG. 2b-e; FIG. 4a), cells were (pre)grown in Complete Synthetic medium containing 2% galactose.
Compounds were always added 10 min prior to glucose addition to ensure maximal interaction between the cells and compounds. Cells originating from the preculture were harvested, washed in medium without sugar, after which they were resuspended to an OD of 0.1 in 200 μL of the appropriate medium. At least three technical replicates were included per condition. OD595 was measured at 30° C. every 30 min with a 10-min shaking interval.

[2] = tested on: A549 lung adenocarcinoma cells; test: A549 cell proliferation / growth inhibition; type: cell-based, human; conditions: for Selected from primary screen for growth inhibition of A549 cells at 50 μM: 50 μM compound, 1 mM glucose; for Selected for having an IC50 ratio (10 mM glucose: 1 mM glucose) of A549 growth higher than WBC-A: IC50 on 10 mM vs 1 mM glucose, compared with WBC-A
Experimental: The analog library (n=203) was screened for inhibition of growth of A549 cells on RPMI medium supplemented with 1 mM glucose. DMSO (green bar) and WBC-A (orange bar) served as negative and positive control, respectively. In addition, the reference glucose transport inhibitors STF-31, Fasentin, BAY-876, WZB-117 and Cytochalasin B were included and indicated in red. Compounds were added at 50 μM concentration. Number of cells was determined by counting nuclei stained by Hoechst after three days of growth.
For both adherent A549 and MCF10Δ H-RAS^V12 cell lines, growth curves were established using the IncuCyte® ZOOM technology. By collecting phase contrast images, the IncuCyte® software provides a calculated confluency percentage from which growth curves can be deducted.
Cells were seeded at a density of 1000-1500 cells/well in a Nunc-Edge™ 96-well plate (Thermo Fisher Scientific) and growth was typically measured over 3 to 5 days. For the measurement of apoptosis induction using the MCF10Δ H-RAS^V12 cell line, the IncuCyte® Caspase-3/7 green dye was added to the medium in the recommended concentration at the beginning of the growth curve experiment. Apoptosis was detected by taking fluorescent images by excitation at 488 nm followed by IncuCyte® software analysis. Cell growth of the KMS-12-PE multiple myeloma cell line, which grows in suspension, was measured by manual cell counting. Cells were initially seeded at a density of 10^4 cells/well and incubated for 4 days after which the cell number was counted. For all cell lines, the same medium used for pregrowth was also used for the growth curve experiment, albeit with different glucose concentrations depending on the experimental design. With compound administration, the final concentration of DMSO never exceeded 0.1%. Typically, at least four technical repeats were included per condition.

| SMILES | Rescue of the tps1Δ strain on 2.5 mM glucose at 100 μM [1] | Selected from primary screen for growth inhibition of A549 cells at 50 μM [2] | Selected for having an IC50 ratio (10 mM glucose: 1 mM glucose) of A549 growth higher than WBC-A [2] |
| --- | --- | --- | --- |
| Cc1nc(SCC(=O)c2ccc3c(c2)NC(=O)CO3)c2c(-c3cccs3)csc2n1 [11C] | Yes | Yes | Higher IC50 ratio and confirmed |
| Cc1nc(Sc2nnc3sc4ccccc4n23)c2c3c(sc2n1)CCCC3 [51C] | No | No | – |
| c1ccc2c(c1)sc1nnc(Sc3ncnc4sc5c(c34)CCCC5)n12 [62A] | No | No | – |
| Cc1sc2nc(CN3CCC(C)CC3)nc(Sc3nnc(C4CC4)n3CCC(N)=O)c2c1C [17A] | No | Yes | Lower IC50 ratio |
| OCCSc1ncnc2scc(-c3ccc(F)cc3)c12 [56C] | No | No | – |
| Cn1ccnc1Sc1nc(CN2CCOCC2)nc2scc(-c3cccs3)c12 [3C] | No | No | – |
| COc1ccc(-c2csc3nc(C)nc(Sc4nnc(-c5ccoc5C)n4C)c23)cc1OC [20A] | No | Yes | Lower IC50 ratio |
| Cc1nc(Sc2nnc(-c3cccnc3)n2C)c2c(-c3cccs3)csc2n1 [23A] | Yes | Yes | Lower IC50 ratio |
| Cc1nc(SC(C)C(=O)Nc2ccc(S(N)(=O)=O)cc2)c2c(-c3cccs3)csc2n1 (centres unmarked) [14B] | No | Yes | Lower IC50 ratio |
| Cc1nc(Sc2nnnn2Cc2ccco2)c2c(-c3cccs3)csc2n1 [35C] | No | Yes | Lower IC50 ratio |
| Cc1nc(SCC(N)=O)c2c3c(sc2n1)CCC3 [49C] | No | No | – |
| Cc1nc(NCCN2CCOCC2)c2c(-c3ccccc3)csc2n1 [85C] | No | Yes | Higher IC50 ratio, but false-positive |
| Cc1nc(SCCC#N)c2c(-c3cccs3)csc2n1 [15A] | No | No | – |
| COCCCNC(=O)CSc1nc(C)nc2scc(-c3cccs3)c12 [15B] | Yes | No | – |
| Cc1cc(NC(=O)CSc2nnc(C)c3cnn(-c4ccccc4)c23)no1 [72C] | No | No | – |
| Cc1nc(SCC(=O)NC(=O)NCCC(C)C)c2c(-c3cccs3)csc2n1 [49B] | No | Yes | Lower IC50 ratio |
| CCOC(=O)c1sc2nc(C)nc(SCC(N)=O)c2c1C [59C] | No | No | – |
| Cc1nc(Sc2nnc(C)[nH]2)c2c(-c3ccccc3)csc2n1 [13A] | No | No | – |
| CCc1nc(SCC(=O)OC)c2ccsc2n1 [42C] | No | No | Lower IC50 ratio |
